Source: PubChem BioAssay AID1919017 (Molecular Pharmacology Branch, DTP, NCI, 2023)

Test system: SW1271 complex spheroids with HUVEC/MSC, growth, % test/control
Assay: Anticancer human tumor SW1271 cell line growth inhibition [AhR];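 further: spheroids exposed to agents for 7 days before readout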
Details: for IC50: curve of first compound; for viability, T/C: stronger effect = lower value
In short: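 Spheroids combined tumor cells with HUVEC endothelial cells and human MSCs as stroma. AhR antagonists were paired with standard or investigational drugs, each dosed in half-log steps down from near clinical Cmax, or from 10 microM where Cmax was unknown.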

[1] = second compound 0.1 µM, first compound 0.0316 µM
[2] = second compound 0.1 µM, first compound 0.1 µM
[3] = second compound 0.1 µM, first compound 0.316 µM
[4] = second compound 0.1 µM, first compound 1 µM
[5] = second compound 0.1 µM, first compound 3.16 µM
[6] = second compound 0.1 µM, first compound 10 µM
[7] = second compound 0.316 µM, first compound 0.0316 µM
[8] = second compound 0.316 µM, first compound 0.1 µM
[9] = second compound 0.316 µM, first compound 0.316 µM
[10] = second compound 0.316 µM, first compound 1 µM
[11] = second compound 0.316 µM, first compound 3.16 µM
[12] = second compound 0.316 µM, first compound 10 µM
[13] = second compound 1 µM, first compound 0.0316 µM
[14] = second compound 1 µM, first compound 0.1 µM
[15] = second compound 1 µM, first compound 0.316 µM
[16] = second compound 1 µM, first compound 1 µM
[17] = second compound 1 µM, first compound 3.16 µM
[18] = second compound 1 µM, first compound 10 µM
[19] = second compound 3.16 µM, first compound 0.0316 µM
[20] = second compound 3.16 µM, first compound 0.1 µM
[21] = second compound 3.16 µM, first compound 0.316 µM
[22] = second compound 3.16 µM, first compound 1 µM
[23] = second compound 3.16 µM, first compound 3.16 µM
[24] = second compound 3.16 µM, first compound 10 µM
[25] = second compound 10 µM, first compound 0.0316 µM
[26] = second compound 10 µM, first compound 0.1 µM
[27] = second compound 10 µM, first compound 0.316 µM
[28] = second compound 10 µM, first compound 1 µM
[29] = second compound 10 µM, first compound 3.16 µM
[30] = second compound 10 µM, first compound 10 µM
[31] = second compound 0.1 µM, first compound 0.00316 µM
[32] = second compound 0.1 µM, first compound 0.01 µM
[33] = second compound 0.316 µM, first compound 0.00316 µM
[34] = second compound 0.316 µM, first compound 0.01 µM
[35] = second compound 1 µM, first compound 0.00316 µM
[36] = second compound 1 µM, first compound 0.01 µM
[37] = second compound 3.16 µM, first compound 0.00316 µM
[38] = second compound 3.16 µM, first compound 0.01 µM
[39] = second compound 10 µM, first compound 0.00316 µM
[40] = second compound 10 µM, first compound 0.01 µM

Structure (SMILES) | IC50 (second compound 0.1 µM) [nM] | IC50 (second compound 0.316 µM) [nM] | IC50 (second compound 1 µM) [nM] | IC50 (second compound 3.16 µM) [nM] | IC50 (second compound 10 µM) [nM] | viability, T/C [1] [%] | viability, T/C [2] [%] | viability, T/C [3] [%] | viability, T/C [4] [%] | viability, T/C [7] [%] | viability, T/C [8] [%] | viability, T/C [9] [%] | viability, T/C [10] [%] | viability, T/C [13] [%] | viability, T/C [14] [%] | viability, T/C [15] [%] | viability, T/C [16] [%] | viability, T/C [19] [%] | viability, T/C [20] [%] | viability, T/C [21] [%] | further results
CC(C)c1c(-c2ccccc2)nc2c(C#N)c[nH]n2c1=O + CC(CO)NC(=O)c1cc(-c2ccc(Cl)cc2)nn(-c2cnn(C)c2)c1=O | > 10000 | > 10000 | > 10000 | > 10000 | > 10000 | 88.4 | 101 | 106 | 90.9 | 88.7 | 85.3 | 91.4 | 98.1 | 78.7 | 89.9 | 86.4 | 78.7 | 95.7 | 97.8 | 80.1 | viability, T/C [5]: 95.7%; viability, T/C [6]: 121%; viability, T/C [11]: 93.8%; viability, T/C [12]: 108%; viability, T/C [17]: 107%; viability, T/C [18]: 94.8%; viability, T/C [22]: 78%; viability, T/C [23]: 82.8%; viability, T/C [24]: 76.8%; viability, T/C [25]: 71.8%; viability, T/C [26]: 80.8%; viability, T/C [27]: 67.8%; viability, T/C [28]: 71.3%; viability, T/C [29]: 62.9%; viability, T/C [30]: 77.8%
CC1COCCN1c1cc(-c2ccnn2C)c2ccnc(-c3ccn[nH]3)c2n1 (stereo not given) + CC(CO)NC(=O)c1cc(-c2ccc(Cl)cc2)nn(-c2cnn(C)c2)c1=O | 916 | 867 | > 1000 | 694 | 543 | 94.4 | 82.1 | 67.8 | 48.5 | 81.7 | 84.3 | 70 | 46.8 | 86.7 | 80.7 | 65.7 | 49.1 | 75.5 | 75.9 | 57.2 | viability, T/C [31]: 102%; viability, T/C [32]: 97.5%; viability, T/C [33]: 92.5%; viability, T/C [34]: 96.1%; viability, T/C [35]: 110%; viability, T/C [36]: 98.2%; viability, T/C [37]: 84.5%; viability, T/C [38]: 79.2%; viability, T/C [22]: 45.6%; viability, T/C [39]: 88.9%; viability, T/C [40]: 75%; viability, T/C [25]: 68.5%; viability, T/C [26]: 66.6%; viability, T/C [27]: 47.9%; viability, T/C [28]: 47.6%
COc1ccc([C@@H](O)c2cc(-c3ncnc4cc(N5CCOCC5)ccc34)c(F)cc2Cl)nn1 + CC(CO)NC(=O)c1cc(-c2ccc(Cl)cc2)nn(-c2cnn(C)c2)c1=O | 2690 | 1900 | 1410 | 1480 | 931 | 83.9 | 96.4 | 90.9 | 66.5 | 101 | 91.4 | 77.3 | 58.6 | 103 | 108 | 78.6 | 55.8 | 92.2 | 80.4 | 68.3 | viability, T/C [5]: 49.6%; viability, T/C [6]: 28%; viability, T/C [11]: 43.1%; viability, T/C [12]: 33.2%; viability, T/C [17]: 40.6%; viability, T/C [18]: 29.6%; viability, T/C [22]: 56.3%; viability, T/C [23]: 39.2%; viability, T/C [24]: 36.5%; viability, T/C [25]: 84%; viability, T/C [26]: 76.9%; viability, T/C [27]: 59.8%; viability, T/C [28]: 50.3%; viability, T/C [29]: 38%; viability, T/C [30]: 29.1%
COc1cccc2c1C(=O)c1c(O)c3c(c(O)c1C2=O)CC(O)(C(=O)CO)CC3OC1CC(N)C(O)C(C)O1 (stereo not given) + Cc1ccccc1N=Nc1ccc(NC(=O)c2ccnn2C)c(C)c1 | < 31.6 | < 31.6 | 152 | 115 | 128 | 39.7 | 52.7 | 32.5 | 3 | 52.6 | 45.9 | 34.7 | 2.92 | 56.4 | 58.8 | 36.6 | 3.45 | 54.6 | 49.7 | 34.9 | viability, T/C [5]: 3.18%; viability, T/C [6]: 2.71%; viability, T/C [11]: 2.63%; viability, T/C [12]: 3.51%; viability, T/C [17]: 3.18%; viability, T/C [18]: 4.18%; viability, T/C [22]: 2.56%; viability, T/C [23]: 3.52%; viability, T/C [24]: 3.41%; viability, T/C [25]: 57.6%; viability, T/C [26]: 50.4%; viability, T/C [27]: 35.4%; viability, T/C [28]: 1.26%; viability, T/C [29]: 3.22%; viability, T/C [30]: 3.53%
Nc1ncn(C2CC(O)C(CO)O2)c(=O)n1 (stereo not given) + Cc1ccccc1N=Nc1ccc(NC(=O)c2ccnn2C)c(C)c1 | > 1000 | > 1000 | > 1000 | > 1000 | > 1000 | 64.3 | 60.1 | 63 | 49.4 | 69 | 76.1 | 72 | 59.6 | 72.7 | 62.9 | 75.4 | 60.2 | 79.9 | 63.7 | 64.1 | viability, T/C [31]: 81.5%; viability, T/C [32]: 86.8%; viability, T/C [33]: 82.2%; viability, T/C [34]: 66.9%; viability, T/C [35]: 79.8%; viability, T/C [36]: 71.3%; viability, T/C [37]: 72.7%; viability, T/C [38]: 83.2%; viability, T/C [22]: 59%; viability, T/C [39]: 76.1%; viability, T/C [40]: 65.5%; viability, T/C [25]: 66.1%; viability, T/C [26]: 71.5%; viability, T/C [27]: 65%; viability, T/C [28]: 69.9%
